Data set [1] is described as follows: Clinical trial LP0058-1442 in healthy volunteers: PK of modified-release tablet vs immediate-release capsule. The class given is in vivo, human. The settings on record: for AUC(0-t): human, plasma, oral, read-out: AUClast, NCA GM (CV %). As to the method: The modified-release formulation was studied in a clinical trial (LP0058-1442) and administered in a total of 36 healthy volunteers: 18 in part 1, 9 in part 2, and 9 in part 3. Twenty-seven (27) healthy volunteers received a single administration of 30 mg orismilast, and 9 subjects received multiple administrations over a period of 17 days with an up-titration up to a maximum of 60 mg BID. Part 1 of this study was to evaluate the key PK parameters of the new modified-release formulation compared to the reference capsule formulation with immediate release. Orismilast was rapidly absorbed from both formulations with median tmax values of 3.00 hours post-dose for the immediate-release capsule and 2.52 hours post-dose for the modified-release tablet. The individual tmax ranges were approximately 1 to 6 hours post-dose for the immediate-release capsule and 1 to 4 hours post-dose for the modified-release tablet. […] It can therefore be reasonably assumed that the safety profile resulting from systemic effects can be extrapolated from studies having investigated the immediate-release formulation and in particular, study LP0058-1072, a Phase 2a study including 36 patients with moderate to severe psoriasis vulgaris.
Following administration of modified release tablet as a single oral dose and after multiple doses up to 60 mg, orismilast reached a Cmax around 3 h under fasting state.

Data set [2] deals with adults with moderate to severe atopic dermatitis. The experiment in a line: Phase 2b study in atopic dermatitis (Example 8): treatment emergent adverse events. The format is in vivo, human. The source says:
The exploratory objectives are to: • Evaluate pharmacokinetic (PK) and pharmacodynamic parameters relevant to AD • Evaluate the effect of orismilast on the pulmonary status and course of the disease in patients with asthma Primary Endpoint • Percentage change in Eczema Area and Severity Index (EASI) score from Baseline at Week 16. […]

Each structure is given as a SMILES string. Like-named read-outs stand apart in the source and are kept apart here.

With `O=C(Cc1c(Cl)c[n+]([O-])cc1Cl)c1ccc(OC(F)F)c2c1OC1(CCS(=O)(=O)CC1)O2` [orismilast, 2-(3,5-dichloro-1-oxidopyridin-1-ium-4-yl)-1-[7-(difluoromethoxy)-1′,1′-dioxospiro[1,3-benzodioxole-2,4′-thiane]-4-yl]ethanone], the AUC(0-t) in data set [1] (10 mg, 1442 - Part 3 (D1 = 10 mg), N 9) came to 112 ng·h/mL; in data set [1] (30 mg, 1442 - Part 1 (MR, 30 mg), N 18), 482 ng·h/mL; in data set [1] (30 mg, 1442 - Part 2 (Fast, 30 mg), N 9), 480 ng·h/mL; in data set [1] (60 mg, 1442 - Part 3 (D17 = 60 mg), N 9) it was 763 ng·h/mL. Moreover, the “systemic exposure with high-fat meals” value in data set [1] (modified release tablet) is “significant increase”. Moreover, the “patients experiencing any Treatment Emergent Adverse Event (TEAE) through Week 16” value is 76% in data set [2] (20 mg BID), 79% in data set [2] (30 mg BID) and 86% in data set [2] (40 mg BID).
